Series [1] has as its system Cynomolgus monkeys. Put plainly: repeat-dose study, 13 weekly SC doses, limiting erythropoiesis. The series is classed as in vivo. An excerpt: A cohort of animals (4/sex/group) were sacrificed on Day 92 (Main), and the remaining animals (2/sex/group) were sacrificed on Day 120 following a 35-day recovery period (Recovery).
Series [2] relates to PV patients. Put plainly: Phase 2 study in phlebotomy-requiring Polycythemia vera.
Description: Eligible patients were enrolled in the 28-week dose finding part of the Phase 2 trial. […] Body iron status was quantified by monitoring serum ferritin, serum iron, transferrin saturation (TSAT), mean corpuscular volume (MCV) and mean corpuscular hemoglobin (MCH).
In series [3] the test system is healthy subjects. As to the kind of experiment: Phase I single dose study. Conditions: 62 healthy subjects. The series is classed as in vivo, human. An excerpt:
Compound A is a hepcidin mimetic agent in clinical studies for multiple blood disorders.

Series [4] has as its target T1, human ferroportin (Homo sapiens, UniProt Q9NP59).
T1 construct: expressed in transfected cells
T1 sequence (Q9NP59 1-571): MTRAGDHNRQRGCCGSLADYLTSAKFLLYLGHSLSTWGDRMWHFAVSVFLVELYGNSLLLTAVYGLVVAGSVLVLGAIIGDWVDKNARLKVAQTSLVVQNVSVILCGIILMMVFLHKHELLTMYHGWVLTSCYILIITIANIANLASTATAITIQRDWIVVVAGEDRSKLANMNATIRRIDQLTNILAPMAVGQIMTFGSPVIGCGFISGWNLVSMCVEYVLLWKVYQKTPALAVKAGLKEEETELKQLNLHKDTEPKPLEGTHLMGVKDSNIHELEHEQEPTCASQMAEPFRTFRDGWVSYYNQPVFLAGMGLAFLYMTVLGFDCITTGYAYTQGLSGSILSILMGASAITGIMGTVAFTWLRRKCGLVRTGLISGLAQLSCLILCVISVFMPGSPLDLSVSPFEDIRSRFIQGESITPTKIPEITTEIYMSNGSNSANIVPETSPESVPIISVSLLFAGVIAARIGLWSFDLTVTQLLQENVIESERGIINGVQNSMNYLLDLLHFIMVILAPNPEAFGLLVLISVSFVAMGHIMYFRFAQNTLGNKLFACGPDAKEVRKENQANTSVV
Put plainly: ferroportin-GFP internalization/degradation assay in HEK293 cells. It is filed as cell-based. Conditions: read-out: Potency EC50.

The test system of series [5] is patients with phlebotomy-dependent PV and splenomegaly. Conditions: through week 32; 6 events with BAT; cited from earlier work.
Series [6] concerns Cynomolgus monkeys. As to the kind of experiment: PK-PD experiment, serum iron (Cobas IRON2). It is filed as in vivo. The method, then: Iron content in plasma/serum was measured using a colorimetric assay on the Cobas c 111 according to instructions from the manufacturer of the assay (assay: IRON2: ACN 661).
In series [7] the test system is PV mice. Conditions: cited from earlier work.
The target in series [8] is T2, human ferroportin (SLC40A1) fused in frame with GFP, stably expressed on HEK293 cells (human, UniProt Q9NP59 1-571).
T2 sequence (looked up): T1 sequence (Q9NP59 1-571)
Put plainly: cell-based or functional assay.

The mark [9] stands for this setting: SC doses of 10 mg to 80 mg, various times after dosing.

As a reminder, the EC50 is the concentration giving half of the maximal effect.

For the molecule `CCCCCCCCCCCCCCCC(=O)N[C@@H](CCC(=O)NCCCC[C@@H]1NC(=O)[C@H]([C@@H](C)CC)NC(=O)[C@@H](NC(=O)[C@@H]2CCCN2C(=O)[C@H](Cc2ccccc2)NC(=O)[C@H](Cc2c[nH]cn2)NC(=O)[C@@H](NC(=O)[C@H](CC(=O)O)NC(=O)CC(C)C)[C@@H](C)O)CSSC[C@@H](C(=O)N[C@@H](CCCCN)C(N)=O)NC(=O)CNC(=O)[C@H](CCCCN)NC(=O)[C@H](CO)NC(=O)[C@H](CCCNC(=N)N)NC(=O)[C@@H]2CCCN2C(=O)[C@H](CCC(=O)O)NC(=O)[C@H](Cc2ccccc2)NC1=O)C(=O)O` [Compound A], the platelets result in series [1] (6 mg/kg/dose, male and female, FIG. 5) is “significantly elevated levels of platelets”. For the same molecule, the “total bilirubin (tBili)” value in series [1] (at ≥2 mg/kg/day, treatment period, FIG. 4) is recorded as “increase in total bilirubin”. In series [1] (at ≥2 mg/kg/dose), the “bone marrow (femur, sternum) findings” value was “hematopoietic hypercellularity occurred in bone marrow”; the “liver and spleen findings” value was “extramedullary hematopoiesis and hemosiderin deposition was observed in the liver and spleen”. In addition, in series [2] (10-80 mg SC weekly), the “most frequent adverse events” value is “injection site reaction (ISR) reported by three patients” and the tolerability result is recorded as “well tolerated”. Moreover, in series [2] (setting [9]), the “plasma concentrations of Compound A, lower end of range (below detectable)” value is on record as less than 2 ng/mL and the “plasma concentrations of Compound A, upper end of range” value is 866 ng/mL. In addition, in series [2] (over the course of treatment, FIG. 14), the platelet counts result is reported as “remained generally steady”. Also, the leukocyte count result in series [2] (over the course of treatment, FIG. 16) was “remained generally steady”. Moreover, in series [2] (transient, no patient discontinued), the “grade of most injection site reactions” value is reported as 1-2 grade. Besides, in series [3], the adverse events result is “without significant adverse events”.
Turning to `CC[C@@H](C)[C@@H](NC(=O)[C@H](N)Cc1ccccc1)C(=O)N[C@H](CS)C(=O)N[C@@H](C(=O)N1CCC[C@@H]1C(=O)N[C@H](Cc1ccccc1)C(=O)N[C@H](Cc1c[nH]cn1)C(=O)N[C@@H](C(=O)N[C@H](CC(=O)O)C(N)=O)[C@H](C)O)[C@H](C)CC` [RI-Mini Hepcidin, Hy-DPhe-DIle-DCys-DIle-DPro-DPhe-DHis-DThr-DAsp-NH2], the EC50 in series [4] is more than 10 µM.
Regarding `N#CC[C@H](C1CCCC1)n1cc(-c2ncnc3[nH]ccc23)cn1` [ruxolitinib], in series [5], the thromboembolic events is reported as 1 event.
In the case of “Isovaleric acid-DTHFPCIKF(K(PEG11-Palm))PRSK[Sar]CK-NH2 [Compound B]”, the “time of maximal serum iron reduction” value in series [6] (2.93 mg/kg SC) was “about 12 hour”. Further, the “serum iron reduction, lower than pre-dose levels” value in series [6] (2.93 mg/kg SC, at about 12 hour) is reported as 12 fold. In series [6] (SC single dose), the “serum concentrations having maximum effect on serum iron” value lay within 50 to 125 ng/mL and the “serum concentrations that were effective on serum iron” value was in the range of 25 to 125 ng/mL.
Consider “minihepcidin: hepcidin mimetic administered to PV mice in Casu et al., Blood 2016 (DTHFPICIF)”, for which, in series [7], the hematocrit entry is “normalizes hematocrit” and the splenomegaly entry was “significantly reduces splenomegaly”.

B1: RI-Mini Hepcidin (peptide)
peptide: FICIPFHTD
modifications: all residues are D-amino acids (Hy-DPhe-DIle-DCys-DIle-DPro-DPhe-DHis-DThr-DAsp-NH2); C-terminal amide
Take B1: the “Potency EC50 (nM); ferroportin internalization/degradation, decrease in GFP fluorescence of ferroportin-GFP HEK293 cells” value in series [8] was more than 10000 nM.
On the same count and under the same terms, as for H-DTHFPICIF-NH2 [Mini-Hepcidin], the figure is 712 nM.

The values are drawn from patent US20210061872A1 (PROTAGONIST THERAPEUTICS, published 2021).
